These results are taken from patent US20230295068A1, “NOVEL CYCLOALKENONE COMPOUND OR SALT THEREOF” (TAIHO PHARMACEUTICAL CO., LTD., priority 2020, published 2023).

In general, viability refers to a read-out of living cells in per cent, often relative to untreated cells.

This data set concerns ND3 neuronal cell line. Kind of data set: Measurement of nerve growth stimulation effect (neurite bearing assay, neurite length assay, number of cells). The following applies: relative cell number, DMSO well = 1; for Number of cells: ND3 cells, 6 h; for viability at 1 µM / viability at 3 µM / viability at 5 µM / viability at 10 µM / viability at 30 µM / viability at 100 µM: 6 hours. Type of data set: cell-based. The essentials:
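ND3 cells were exposed 6 h to compounds in DMEM with 0.1% BSA (0.1% DMSO final), in duplicate. Neurite-bearing fraction (neurite longer than cell-body diameter) and neurite length per cell were scored by imaging and expressed relative to compound 24 maximum. Cell number was relative to DMSO wells; data with relative count <0.5 were excluded.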

As for `COCCCCCCCCCCCCCCCC1=C(C)CCCC1(C)C` [Compound 64, 2-(15-methoxypentadecyl)-1,3,3-trimethylcyclohex-1-ene], the Number of cells stood at 0.80 (1 μM compound); 0.93 (3 μM compound); 0.96 (5 μM compound); 0.88 (10 μM compound); 0.96 (30 μM compound); 0.53 (100 μM compound).
For the compound `COCCCCCCCCCCCCCCC1=C(C)C(=O)CC1(C)C` [Compound 72, 3-(14-methoxytetradecyl)-2,4,4-trimethylcyclopent-2-en-1-one], the Number of cells is, setting by setting: (1 μM compound) 0.84; (3 μM compound) 0.85; (5 μM compound) 0.78; (10 μM compound) 0.80; (30 μM compound) 0.41; (100 μM compound) 0.38.
Consider `CC1=C(CCCCCCCCCCCCCCCOC(N)=O)C(C)(C)CCC1=O` [Compound 35, 15-(2,6,6-trimethyl-3-oxocyclohex-1-en-1-yl)pentadecylcarbamate], for which the viability at 1 µM came out at 94%, the viability at 3 µM turned out to be 94%, the viability at 5 µM was 99% and the viability at 10 µM was found to be 82%. Also, the viability at 30 µM turned out to be 16% and the viability at 100 µM amounted to 31%.
For `CC1=C(CCCCCCCCCCCCCCCCOC(C)C)C(C)(C)CCC1=O` [Compound 31, 3-(16-isopropoxyhexadecyl)-2,4,4-trimethylcyclohex-2-en-1-one], the viability at 1 µM is 99%, the viability at 3 µM was determined as 93%, the viability at 5 µM was 75% and the viability at 10 µM was found to be 77%. Besides, the viability at 30 µM came out at 84% and the viability at 100 µM was 93%.
In the case of `CC1=C(CCCCCCCCCCCCCO)C(C)(C)CCC1=O` [Compound 2, 3-(13-hydroxytridecyl)-2,4,4-trimethylcyclohex-2-en-1-one, reference compound], the viability at 1 µM stood at 113%, the viability at 3 µM was 102%, the viability at 5 µM was determined as 96% and the viability at 10 µM worked out at 96%. Besides, the viability at 30 µM worked out at 19% and the viability at 100 µM came to 9%.
Regarding `COCCCCCCCCCCCCCCCC1=C(COC)C(=O)CCC1(C)C` [Compound 42, 2-(methoxymethyl)-3-(15-methoxypentadecyl)-4,4-dimethylcyclohex-2-en-1-one], the viability at 1 µM was determined as 86%, the viability at 3 µM was determined as 88%, the viability at 5 µM is 76% and the viability at 10 µM was found to be 83%. Moreover, the viability at 30 µM turned out to be 87% and the viability at 100 µM worked out at 83%.
For the compound `COCCCCCCCCCCCCCCCC1=C(C)C(=O)CC1(C)C` [Compound 69, 3-(15-methoxypentadecyl)-2,4,4-trimethylcyclopent-2-en-1-one], the Number of cells reads like this: (1 μM compound) 0.89; (3 μM compound) 0.89; (5 μM compound) 0.75; (10 μM compound) 0.80; (30 μM compound) 0.70; (100 μM compound) 0.47.
On to `COCCCCCCCCCCCCCCCCC1=C(C)C(=O)CCC1(C)C` [Compound 29, 3-(16-methoxyhexadecyl)-2,4,4-trimethylcyclohex-2-en-1-one], for which the viability at 1 µM turned out to be 107%, the viability at 3 µM was 98%, the viability at 5 µM stood at 96% and the viability at 10 µM was 92%. Moreover, the viability at 30 µM was 97% and the viability at 100 µM turned out to be 93%.
As for `CCOCCCCCCCCCCCCC1=C(C)C(=O)CCC1(C)C` [Compound 12, 3-(12-ethoxydodecyl)-2,4,4-trimethylcyclohex-2-en-1-one], the viability at 1 µM was 96%, the viability at 3 µM came out at 90%, the viability at 5 µM amounted to 77% and the viability at 10 µM was 69%. Moreover, the viability at 30 µM turned out to be 11% and the viability at 100 µM was 3%.
For the compound `CCCOCCCCCCCCCCCCC1=C(C)C(=O)CC1(C)C` [Compound 71, 2,4,4-trimethyl-3-(12-propoxydodecyl)cyclopent-2-en-1-one], the Number of cells (1 μM compound) is listed as 0.87; the Number of cells (3 μM compound) is 0.94; the Number of cells (5 μM compound) was 0.87; the Number of cells (10 μM compound) came out at 0.79; the Number of cells (30 μM compound) is 0.39; the Number of cells (100 μM compound) is 0.07.
With `CC1=C(CCCCCCCCCCCCCCCOC(C)C)C(C)(C)CCC1=O` [Compound 26, 3-(15-isopropoxypentadecyl)-2,4,4-trimethylcyclohex-2-en-1-one], the viability at 1 µM stood at 102%, the viability at 3 µM came out at 100%, the viability at 5 µM is 93% and the viability at 10 µM stood at 90%. Further, the viability at 30 µM is 98% and the viability at 100 µM came out at 101%.
`CCOCCCCCCCCCCCCCCC1=C(C)C(=O)CC1(C)C` [Compound 73, 2,4,4-trimethyl-3-(14-ethoxytetradecyl)cyclopent-2-en-1-one]: the Number of cells is, setting by setting: (1 μM compound) 0.91; (3 μM compound) 0.86; (5 μM compound) 0.84; (10 μM compound) 0.82; (30 μM compound) 0.61; (100 μM compound) 0.09.
Turning to `COCCCCCCCCCCCCCCCC1=C(C)/C(=N/OC)CCC1(C)C` [Compound 68, 3-(15-methoxypentadecyl)-2,4,4-trimethylcyclohex-2-en-1-one O-methyloxime], the Number of cells is 0.85 (1 μM compound); 0.92 (3 μM compound); 0.73 (5 μM compound); 0.71 (10 μM compound); 0.95 (30 μM compound); 0.89 (100 μM compound).
As for `CC1=C(CCCCCCCCCCCCCCC#N)C(C)(C)CCC1=O` [Compound 34, 15-(2,6,6-trimethyl-3-oxocyclohex-1-en-1-yl)pentadecanitrile], the viability at 1 µM turned out to be 106%, the viability at 3 µM was determined as 101%, the viability at 5 µM amounted to 96% and the viability at 10 µM worked out at 98%. In addition, the viability at 30 µM came to 98% and the viability at 100 µM was determined as 97%.
Turning to `COCCCCCCCCCCCCCCCC1=CC(=O)CCC1` [Compound 37, 3-(15-methoxypentadecyl)cyclohex-2-en-1-one], the viability at 1 µM is 99%, the viability at 3 µM was 102%, the viability at 5 µM turned out to be 84% and the viability at 10 µM turned out to be 89%. For the same compound, the viability at 30 µM was determined as 107% and the viability at 100 µM was 97%.
`COCCCCCCCCCCCCCCCC1=C(C)C(N)CCC1(C)C` (stereo not drawn) [Compound 66, 3-(15-methoxypentadecyl)-2,4,4-trimethylcyclohex-2-en-1-amine]: the Number of cells reads like this: (1 μM compound) 1.15; (3 μM compound) 1.11; (5 μM compound) 0.80; (10 μM compound) 0.79; (30 μM compound) 0.39; (100 μM compound) 0.04.
Take `CC1=C(CCCCCCCCCCCCCCC#N)C(C)(C)CC1=O` [Compound 75, 15-(2,5,5-trimethyl-3-oxocyclopent-1-en-1-yl)pentadecanitrile]: the Number of cells was found to be 0.89 (1 μM compound); 0.93 (3 μM compound); 0.94 (5 μM compound); 0.80 (10 μM compound); 0.75 (30 μM compound); 0.80 (100 μM compound).
Take `COCCCCCCCCCCCCC1=C(C)C(=O)CC1(C)C` [Compound 70, 3-(12-methoxydodecyl)-2,4,4-trimethylcyclopent-2-en-1-one]: the Number of cells is reported as 0.84 (1 μM compound); 0.91 (3 μM compound); 0.91 (5 μM compound); 0.86 (10 μM compound); 0.79 (30 μM compound); 0.73 (100 μM compound).
In turn, `CC1=C(CCCCCCCCCCCCCCC(N)=O)C(C)(C)CC1=O` [Compound 74, 15-(2,5,5-trimethyl-3-oxocyclopent-1-en-1-yl)pentadecanamide] displayed a Number of cells (1 μM compound) of 0.74; a Number of cells (3 μM compound) of 0.75; a Number of cells (5 μM compound) of 0.71; a Number of cells (10 μM compound) of 0.73; a Number of cells (30 μM compound) of 0.60; a Number of cells (100 μM compound) of 0.26.
`COCCCCCCCCCCCCCCCC1C(C)C(=O)CCC1(C)C` (stereo not drawn) [Compound 63, 3-(15-methoxypentadecyl)-2,4,4-trimethylcyclohexan-1-one]: the Number of cells by setting is: (1 μM compound) 1.13; (3 μM compound) 1.05; (5 μM compound) 0.84; (10 μM compound) 0.91; (30 μM compound) 1.11; (100 μM compound) 1.16.
Consider `COCCCCCCCCCCCCCCCC1=CC(=O)CCC12CC2` [Compound 43, 4-(15-methoxypentadecyl)spiro[2,5]oct-4-en-6-one], for which the viability at 1 µM was found to be 97%, the viability at 3 µM was 97%, the viability at 5 µM came to 85% and the viability at 10 µM was determined as 86%. Further, the viability at 30 µM is 96% and the viability at 100 µM worked out at 101%.
